From patent US6552012B2 (priority 2000, dated 2003)
Counter-ions that a name gives are not always drawn. Like-named read-outs stand apart in the source and are kept apart here.

Experiments:
[1] = target: T1, nAChR formed by the α7 subunit isoform (Rattus norvegicus, UniProt Q05941); assay: biochemical; format: binding; conditions: read-out: Assay III IC50
T1 construct: Cerebral cortices from male Wistar rats (150-250 g) are homogenised; from tissue; host or cells: rat cerebral cortex membranes (male Wistar)
T1 sequence (Q05941 23-502): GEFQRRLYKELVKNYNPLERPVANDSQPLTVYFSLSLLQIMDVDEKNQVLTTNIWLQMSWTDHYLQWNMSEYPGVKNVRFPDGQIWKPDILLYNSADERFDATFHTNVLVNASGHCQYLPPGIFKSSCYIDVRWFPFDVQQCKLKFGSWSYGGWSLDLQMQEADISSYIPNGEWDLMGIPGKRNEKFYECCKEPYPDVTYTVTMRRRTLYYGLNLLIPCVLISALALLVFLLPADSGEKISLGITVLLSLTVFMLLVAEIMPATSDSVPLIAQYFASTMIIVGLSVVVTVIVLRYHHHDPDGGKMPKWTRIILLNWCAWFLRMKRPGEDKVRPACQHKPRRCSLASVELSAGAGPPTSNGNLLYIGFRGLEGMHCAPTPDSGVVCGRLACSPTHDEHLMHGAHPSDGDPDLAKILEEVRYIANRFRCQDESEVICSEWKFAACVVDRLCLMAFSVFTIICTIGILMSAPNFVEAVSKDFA

[2] = target: T2, nAChRs comprised of α4 and β2 subunits (Rattus norvegicus, UniProt P09483+P12390); assay: In vitro inhibition of 3H-cytisine binding (Assay I)
T2 construct: Cerebral corticies from male Wistar rats (150-250 g) are homogenised; from tissue; host or cells: rat cerebral cortex membranes (male Wistar)
T2 sequence (P09483 31-630): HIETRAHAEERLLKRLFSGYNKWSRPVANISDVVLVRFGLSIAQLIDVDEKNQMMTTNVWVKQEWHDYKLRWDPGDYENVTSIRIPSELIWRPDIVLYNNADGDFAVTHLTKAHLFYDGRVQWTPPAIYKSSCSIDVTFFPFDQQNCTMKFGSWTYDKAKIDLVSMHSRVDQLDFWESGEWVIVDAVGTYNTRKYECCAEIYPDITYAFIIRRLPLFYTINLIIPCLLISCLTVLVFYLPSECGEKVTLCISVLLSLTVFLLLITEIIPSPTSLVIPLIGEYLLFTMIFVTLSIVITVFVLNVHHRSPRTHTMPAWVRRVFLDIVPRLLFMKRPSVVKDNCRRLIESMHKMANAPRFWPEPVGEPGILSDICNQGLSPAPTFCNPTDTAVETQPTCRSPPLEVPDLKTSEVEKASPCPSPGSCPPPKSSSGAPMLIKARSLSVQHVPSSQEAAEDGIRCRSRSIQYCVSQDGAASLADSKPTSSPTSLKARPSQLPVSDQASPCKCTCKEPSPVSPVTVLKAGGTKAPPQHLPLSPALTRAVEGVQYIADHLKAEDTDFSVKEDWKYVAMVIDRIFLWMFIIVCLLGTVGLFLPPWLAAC
T2 sequence (P12390 25-500): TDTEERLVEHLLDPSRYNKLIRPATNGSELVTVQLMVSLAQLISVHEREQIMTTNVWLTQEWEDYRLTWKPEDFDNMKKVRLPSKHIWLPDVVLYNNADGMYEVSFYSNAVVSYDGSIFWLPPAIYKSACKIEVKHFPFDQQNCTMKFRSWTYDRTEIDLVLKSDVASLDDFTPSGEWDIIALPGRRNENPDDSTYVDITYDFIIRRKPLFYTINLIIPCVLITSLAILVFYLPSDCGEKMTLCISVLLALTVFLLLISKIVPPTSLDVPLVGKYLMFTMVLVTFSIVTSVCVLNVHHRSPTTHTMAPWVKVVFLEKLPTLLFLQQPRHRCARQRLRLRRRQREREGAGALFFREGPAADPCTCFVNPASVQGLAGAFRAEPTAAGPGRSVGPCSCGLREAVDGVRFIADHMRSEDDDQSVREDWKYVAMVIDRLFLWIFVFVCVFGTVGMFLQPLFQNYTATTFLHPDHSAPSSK
Experimental: In Vitro inhibition of ^3H-cytisine binding (Assay I)
The predominant subtype with high affinity for nicotine is comprised of α4 and β2 subunits. nAChRs of the latter type can selectively be labelled by the nicotine agonist ^3H-cytisine.
Preparations are performed at 0-4° C. unless otherwise indicated. Cerebral corticies from male Wistar rats (150-250 g) are homogenised for 20 seconds in 15 ml Tris, HCl (50 mM, pH 7.4) containing 120 mM NaCl, 5 mM KCl, 1 mM MgCl2 and 2.5 mM CaCl2 using an Ultra-Turrax homogeniser. The homogenate is centrifuged at 27,000×g for 10 minutes. The supernatant is discarded and the pellet is resuspended in fresh buffer and centrifuged a second time. The final pellet is resuspended in fresh buffer (35 ml per g of original tissue) and used for binding assays.
Aliquots of 500 μl homogenate are added to 25 μl of test solution and 25 μl of ^3H-cytisine (1 nM, final concentration), mixed and incubated for 90 minutes at 2° C. Non-specific binding is determined using (−)-nicotine (100 μM, final concentration). After incubation the samples are added 5 ml of ice-cold buffer and poured directly onto Whatman GF/C glass fibre filters under suction and immediately washed with 2×5 ml ice-cold buffer. The amount of radioactivity on the filters is determined by conventional liquid scintillation counting. Specific binding is total binding minus non-specific binding.

[3] = 3H-cytisine 1 nM, rat cerebral cortex homogenate, read-out: Assay I IC50

Row | Compound | melting point [°C] | IC50 [1] [µM] | IC50 [2, 3] [nM] | IC50 [2] [nM]
1 | CC=COc1cncc(N2C3CCNCC2CC3)c1 (stereo not drawn) (as salt: fumaric acid salt) [9-[5-(Propyl-1-en-oxy)-(3-pyridyl)]-3,9-diazabicyclo-[4.2.1]-nonane Fumaric Acid Salt] | 161.5 to 163 | – | – | –
2 | CC=COc1cncc(N2CCC3CCC(C2)N3)c1 (stereo not drawn) (as salt: fumaric acid salt) [3-[5-(Propyl-1-en-oxy)-3-pyridyl]-3,9-diazabicyclo-[4.2.1]-nonane bis Fumaric Acid Salt] | 144 to 146 | – | – | –
3 | CC=COc1cncc(N2C3CCNCC2CC3)c1 (stereo not drawn) [9-[5-(Propyl-1-en-oxy)-(3-pyridyl)]-3,9-diazabicyclo-[4.2.1]-nonane Fumaric Acid Salt] | – | 2.7 | 3 | –
4 | CN1C2CCC1CN(c1ccc(Cl)nn1)CC2 (stereo not drawn) [3-[6-Chloro-(3-pyridazinyl)]-9-methyl-3,9-diazabicyclo-[4.2.1]-nonane Fumaric Acid Salt] | – | 10 | – | 1200
5 | CCOc1cncc(N2CCC3CCC(C2)N3C)c1 (stereo not drawn) [3-[5-Ethoxy-(3-pyridyl)]-9-methyl-3,9-diazabicyclo-[4.2.1]-nonane bis-fumaric Acid Salt] | – | 8.1 | 5 | –
6 | C=COc1cncc(N2CCC3CCC(C2)N3)c1.O=C(O)/C=C/C(=O)O (stereo not drawn) [3-(5-Ethenyloxy-3-pyridyl)-3,9-diazabicyclo-[4.2.1]-nonane Fumaric Acid Salt] | 145 to 147 | 1.5 | 2 | –
7 | COc1cncc(N2C3CCNCC2CC3)c1 (stereo not drawn) [9-[5-Methoxy)-(3-pyridyl)]-3,9-diazabicyclo-[4.2.1]-nonane Fumaric Acid Salt] | – | 3 | – | 150
8 | C=COc1cncc(N2CCC3CCC(C2)N3C)c1 (stereo not drawn) [3-(5Ethenyloxy-3-pyridyl)-9-methyl-3,9-diazabicyclo-[4.2.1]-nonane Fumaric Acid Salt] | – | 5.8 | 3 | –
9 | CC=COc1cncc(N2CCC3CCC(C2)N3)c1 (stereo not drawn) [3-[5-(Propyl-1-en-oxy)-3-pyridyl]-3,9-diazabicyclo-[4.2.1]-nonane bis Fumaric Acid Salt] | – | 1.8 | – | 2
10 | CN1C2CCC1CN(c1cncc(Cl)c1)CC2.O=C(O)/C=C/C(=O)O (stereo not drawn) | 181 to 182 | – | – | –
11 | CCOc1cc(N2CCC3CCC(C2)N3C)cnc1Cl.O=C(O)/C=C/C(=O)O (stereo not drawn) | 208.6 | – | – | –
12 | Clc1ccc(N2CCC3CCC(C2)N3)nn1 (stereo not drawn) [3-[6-Chloro-(3-pyridazinyl)]-3,9-diazabicyclo-[4.2.1]-nonane Fumaric Acid Salt] | – | 1.4 | – | 20
13 | CN1C2CCCC1CN(c1cncc(Br)c1)CC2.O=C(O)/C=C/C(=O)O (stereo not drawn) | 162.5 to 164.5 | – | – | –
14 | CCOc1cncc(N2CCC3CCC(C2)N3)c1.O=C(O)/C=C/C(=O)O (stereo not drawn) [3-(5-Ethoxy-3-pyridyl)-3,9-diazabicyclo-[4.2.1]-nonane Fumaric Acid Salt] | 143 to 146 | 6.2 | < 30 | –
15 | COc1cncc(N2C3CCNCC2CC3)c1 (stereo not drawn) (as salt: fumaric acid salt) [9-[5-Methoxy)-(3-pyridyl)]-3,9-diazabicyclo-[4.2.1]-nonane Fumaric Acid Salt] | 183 to 185 | – | – | –
16 | CC=COc1cncc(N2CCC3CCC(C2)N3C)c1 (stereo not drawn) [3-[5-(Propyl-1-en-oxy)-3-pyridyl]-9-methyl-3,9-diazabicyclo-[4.2.1]-nonane Fumaric Acid Salt] | – | 10 | – | 5
17 | CCOc1cncc(N2C3CCNCC2CC3)c1 (stereo not drawn) [9-[5-Ethoxy-(3-pyridyl)]-3,9-diazabicyclo-[4.2.1]-nonane Fumaric Acid Salt] | – | 2.7 | 3 | –
